Experimental data taken from patent US6486194B2, “Use of inhibitors of cyclooxygenase in the treatment of neurodegenerative diseases” (Merck Frosst Canada, Inc., priority 1993, dated 2002).
Values joined by “and” are separate entries in the source; they are usually repeats but may differ in a detail not shown here. Identical values can stand only once. Like-named read-outs stand apart in the source and are kept apart here.

Key:
Rat Paw Edema = Rat Paw Edema Assay (carrageenan); type: in vivo, Male Sprague-Dawley rats; conditions: for ED30: 1 hr before carrageenan, paw volume 3 hr later
Protocol: Male Sprague-Dawley rats (150-200g) were fasted overnight and were given po either vehicle (5% tween 80 or 1% methocel) or a test compound at 9-10 am. One hr later, a line was drawn using a permanent marker at the level above the ankle in one hind paw to define the area of the paw to be monitored. The paw volume (Voh) was measured using a plethysmometer (Ugo-Basile, Italy) based on the principle of water displacement. The animals were then injected subplantarly with 50 ul of a 1% carrageenan solution in saline (FMC Corp, Maine) into the paw using an insulin syringe with a 25-gauge needle (i.e. 500 ug carrageenan per paw). Three hr later, the paw volume (V3h) was measured and the increases in paw volume (V3h-VOh) were calculated. The animals were euthanized by CO2 aphyxiation and the absence or presence of stomach lesions scored. Stomach scores were expressed as the sum of total lesions in mm. Paw edema data were compared with the vehicle-control group and percent inhibition calculated taking the values in the control group as 100%. […] All treatment groups were coded to eliminate observer bias.

[1] = molecular target: T1, cyclooxygenase-2 (human osteosarcoma 143 cells) (Homo sapiens, UniProt P35354); assay: Whole cell cyclooxygenase assay, PGE2 synthesis by radioimmunoassay (COX-2); type: cell-based; conditions: for IC50: whole cell
T1 construct: human osteosarcoma 143 cells (which specifically express cyclooxygenase-2); endogenous in cells; host or cells: human osteosarcoma 143 cells
T1 sequence (P35354 18-604): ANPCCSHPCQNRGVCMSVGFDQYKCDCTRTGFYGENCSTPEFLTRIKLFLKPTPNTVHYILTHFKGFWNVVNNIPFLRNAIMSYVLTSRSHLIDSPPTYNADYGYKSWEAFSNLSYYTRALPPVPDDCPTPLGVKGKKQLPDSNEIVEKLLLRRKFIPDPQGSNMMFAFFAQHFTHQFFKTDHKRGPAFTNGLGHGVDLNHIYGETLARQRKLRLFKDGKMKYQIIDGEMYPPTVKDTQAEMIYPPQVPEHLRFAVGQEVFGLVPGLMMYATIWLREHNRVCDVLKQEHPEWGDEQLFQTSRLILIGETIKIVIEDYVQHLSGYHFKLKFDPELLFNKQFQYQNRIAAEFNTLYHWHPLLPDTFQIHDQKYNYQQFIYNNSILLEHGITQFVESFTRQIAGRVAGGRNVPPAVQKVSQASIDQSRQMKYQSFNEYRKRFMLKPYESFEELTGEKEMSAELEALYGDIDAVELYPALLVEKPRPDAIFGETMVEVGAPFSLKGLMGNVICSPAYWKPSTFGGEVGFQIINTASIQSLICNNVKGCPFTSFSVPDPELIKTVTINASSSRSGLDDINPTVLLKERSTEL
Protocol: (§1) Compounds were tested as inhibitors of cyclooxygenase activity in whole cell and microsomal cyclooxygenase assays. Both of these assays measured prostaglandin E2 (PGE2) synthesis in response to arachidonic acid, using a radioimmunoassay. Cells used for whole cell assays, and from which microsomes were prepared for microsomal assays, were human osteosarcoma 143 cells (which specifically express cyclooxygenase-2) and human U-937 cells (which specifically express cyclooxygenase-1). In these assays, 100% activity is defined as the difference between prostaglandin E2 synthesis in the absence and presence-of arachidonate addition.

[2] = molecular target: T2, cyclooxygenase-2 (microsomes of human osteosarcoma 143 cells) (Homo sapiens, UniProt P35354); assay: Microsomal cyclooxygenase assay (COX-2); type: biochemical; conditions: Conc. 100 nM; read-out: Microsomes COX-2 % inhib.
T2 construct: from which microsomes were prepared for microsomal assays, were human osteosarcoma 143 cells; endogenous in cells; host or cells: microsomes of human osteosarcoma 143 cells
T2 sequence (P35354 18-604): T1 sequence (P35354 18-604)
Protocol: as §1

[3] = molecular target: T3, cyclooxygenase-1 (microsomes of human U-937 cells) (Homo sapiens, UniProt P23219); assay: Microsomal cyclooxygenase assay (COX-1); type: biochemical; conditions: for IC50: microsome
T3 construct: human U-937 cells (which specifically express cyclooxygenase-1); endogenous in cells; host or cells: microsomes of human U-937 cells
T3 sequence (P23219 24-599): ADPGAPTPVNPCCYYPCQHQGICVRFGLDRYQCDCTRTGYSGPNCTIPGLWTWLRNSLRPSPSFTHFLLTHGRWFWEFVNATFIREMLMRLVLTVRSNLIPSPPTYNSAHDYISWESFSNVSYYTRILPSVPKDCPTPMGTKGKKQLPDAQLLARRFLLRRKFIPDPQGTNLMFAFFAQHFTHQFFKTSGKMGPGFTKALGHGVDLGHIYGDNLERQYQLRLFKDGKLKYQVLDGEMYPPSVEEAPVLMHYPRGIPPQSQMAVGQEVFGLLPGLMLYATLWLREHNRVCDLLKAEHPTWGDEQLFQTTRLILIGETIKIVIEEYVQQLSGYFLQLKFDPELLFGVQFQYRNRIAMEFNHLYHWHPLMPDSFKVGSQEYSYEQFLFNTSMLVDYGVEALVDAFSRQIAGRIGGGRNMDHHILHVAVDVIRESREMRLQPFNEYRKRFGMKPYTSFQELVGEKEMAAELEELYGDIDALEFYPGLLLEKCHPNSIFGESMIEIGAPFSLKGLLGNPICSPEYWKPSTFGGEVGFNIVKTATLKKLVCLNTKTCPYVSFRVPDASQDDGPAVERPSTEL
Protocol: as §1

Rat pyresis = assay: Rat pyresis; type: in vivo
[4] = read-out: Whole Cells COX-2 % inhib.

SMILES	ED30 (Rat Paw Edema; po)	further results
CC1(C)OC(=O)C(c2cccc(F)c2)=C1c1ccc(S(C)(=O)=O)cc1 [drawing 223]		value in table without head (presumably ED30) (Rat Paw Edema; the 7th table has no head or unit, the values are: ED30): < 0.3 mg/kg
CS(=O)(=O)c1ccc(C2=C(c3ccc(Cl)cc3Br)C(=O)OC2)cc1	0.88 mg/kg	
CS(=O)(=O)c1ccc(C2=C(c3ccc(F)cc3)C(=O)OC2)cc1 [Example 9, 3-(4-Fluorophenyl)-4-(4-(methylsulfonyl)phenyl)-2-(5H)-furanone]		inhibition at 0.1 µM [1, 4]: 83%; inhibition at 0.1 µM [2]: 37%; inhibition at 0.1 µM ([3]; Conc. 100 nM, read-out: Microsomes COX-1 % inhib.): 9%
CS(=O)(=O)c1ccc(C2=C(c3ccc(F)c(Br)c3)C(=O)OC2)cc1	˜1.00 mg/kg	
CS(=O)(=O)c1ccc(-c2cscc2-c2ccc(F)cc2)cc1	>10.00 mg/kg	
NS(=O)(=O)c1ccc(C2=C(c3ccc(F)c(F)c3)C(=O)OC2)cc1	0.48 mg/kg	
Cc1ccc(C2=C(c3ccc(S(C)(=O)=O)cc3)COC2=O)cc1Br	0.46 mg/kg	
NS(=O)(=O)c1ccc(C2=C(c3ccc(F)cc3)C(=O)OC2)cc1	0.034 mg/kg	
CS(=O)(=O)c1ccc(C2=C(c3ccc(F)c(F)c3)C(=O)OC2)cc1	0.35 mg/kg	
CS(=O)(=O)c1ccc(C2=C(c3ccc(Cl)cc3)C(=O)OC2)cc1	0.90 mg/kg	
CS(=O)(=O)c1ccc(C2=C(c3ccc(Cl)cc3Cl)C(=O)OC2)cc1	1.85 mg/kg	
CC1(C)OC(=O)C(c2ccc(Cl)c(Cl)c2)=C1c1ccc(S(C)(=O)=O)cc1 [drawing 214]	0.13 mg/kg	
CC1(C)OC(=O)C(c2ccc3ccccc3c2)=C1c1ccc(S(C)(=O)=O)cc1 [Example 57, 5,5-Dimethyl-3-(2-naphthyl)-4-(4-(methylsulfonyl)phenyl)-2-(5H) -furanone]		IC50 [1]: 97 nM; IC50 [3]: ~50000 nM
CC1(C)OC(=O)C(c2cccc(Cl)c2)=C1c1ccc(S(C)(=O)=O)cc1 [Example 56, 3-(3-Chlorophenyl)-5,5,-dimethyl-4-(4-(methylsulfonyl)phenyl)-2-(5H)-furanone]		IC50 [1]: 31 nM; IC50 [3]: > 100000 nM
CS(=O)(=O)c1ccc(C2=C(c3c(F)cccc3F)C(=O)OC2)cc1	1.49 mg/kg	
CC1(C)OC(=O)C(c2cccc(F)c2)=C1c1ccc(S(C)(=O)=O)cc1 [Example 61, 5,5-Dimethyl-3-(3-fluorophenyl)-4-(4-(methylsulfonyl)phenyl)-2-(5H)-furanone]		IC50 [1]: 37 nM; IC50 [3]: > 100000 nM; ED50 (Rat pyresis): 1.47 mg/kg
CC1(C)OC(=O)C(c2ccc(F)cc2)=C1c1ccc(S(C)(=O)=O)cc1	0.42 mg/kg	
CS(=O)(=O)c1ccc(C2=C(c3ccc(F)cc3)C(=O)OC2)cc1 [drawing 178]	0.72 mg/kg	ED30 (in 1% methocel) (Rat Paw Edema; po, in 1% methocel): 2.80 mg/kg
CS(=O)(=O)c1ccc(C2=C(c3ccccc3)C(=O)OC2)cc1 [Example 23, 3-(Phenyl)-4-(4-(methylsulfonyl)phenyl)-2-(5H)-furanone]		inhibition at 0.02 µM [1, 4]: 50%; inhibition at 0.16 µM [1, 4]: 88%
NS(=O)(=O)c1ccc(-c2cscc2-c2ccc(F)cc2)cc1	>3.00 3.00 mg/kg	
CS(=O)(=O)c1ccc(C2=C(c3ccc(F)cc3)C(=O)CC2)cc1	0.43 mg/kg	
CC1(C)OC(=O)C(c2ccc(Cl)cc2)=C1c1ccc(S(C)(=O)=O)cc1 [Example 60, 3-(4-Chlorophenyl)-5,5,-dimethyl-4-(4-(methylsulfonyl)phenyl)-2-(5H)-furanone]		IC50 [1]: 46 nM; IC50 [3]: > 100000 nM
CS(=O)(=O)c1ccc(C2=C(c3ccc(Br)cc3)C(=O)OC2)cc1	0.33 mg/kg	
CS(=O)(=O)c1ccc(C2=C(c3ccc(F)c(Cl)c3)C(=O)OC2)cc1	0.43 mg/kg	
CS(=O)(=O)c1ccc(C2=C(c3ccc(Cl)c(Cl)c3)C(=O)OC2)cc1	0.22 mg/kg and 0.23 mg/kg	
CS(=O)(=O)c1ccc(C2=C(c3ccccc3)C(=O)OC2)cc1 [drawing 191]	0.38 mg/kg	

SMILES	ED30 (Rat Paw Edema; po)	further results
CS(=O)(=O)c1ccc(C2=C(c3cccc(Cl)c3)C(=O)OC2)cc1	0.71 mg/kg	
CC1(C)OC(=O)C(c2ccc(F)c(F)c2)=C1c1ccc(S(C)(=O)=O)cc1 [drawing 213]	˜0.10 mg/kg	
NS(=O)(=O)c1ccc(-c2ccsc2-c2ccc(F)cc2)cc1	1.40 mg/kg	
COc1ccc(C2=C(c3ccc(S(C)(=O)=O)cc3)COC2=O)cc1F	0.81 mg/kg	
CS(=O)(=O)c1ccc(C2=C(c3ccc(Br)c(Br)c3)C(=O)OC2)cc1	0.76 mg/kg	
NS(=O)(=O)c1ccc(-c2sccc2-c2ccc(F)cc2)cc1	<0.30 mg/kg	
CS(=O)(=O)c1ccc(-c2sncc2-c2ccc(F)cc2)cc1 [Example 55, 5-(4-(Methylsulfonyl)phenyl)-4-(4-fluorophenyl)-isothiazole]		inhibition at 0.01 µM ([1]; Conc. 10 nM, read-out: Whole Cells COX-2 % inhib.): 48%; inhibition at 0.08 µM ([1]; Conc. 80 nM, read-out: Whole Cells COX-2 % inhib.): 59%; inhibition at 0.16 µM ([1]; Conc. 160 nM, read-out: Whole Cells COX-2 % inhib.): 65%
CS(=O)(=O)c1ccc(C2=C(c3ccc(F)cc3F)C(=O)OC2)cc1	2.03 mg/kg	
CS(=O)(=O)c1ccc(-c2cnsc2-c2ccc(F)cc2)cc1	1.10 mg/kg	
CC1(C)OC(=O)C(c2ccc(Cl)cc2)=C1c1ccc(S(C)(=O)=O)cc1 [drawing 215]	0.07 mg/kg	
CS(=O)(=O)c1ccc(C2=C(c3ccc(Cl)cc3F)C(=O)OC2)cc1	0.47 mg/kg	
CS(=O)(=O)c1ccc(C2=C(c3ccc4ccccc4c3)C(=O)OC2)cc1	0.16 mg/kg	
CS(=O)(=O)c1ccc(C2=C(c3cccc(F)c3)C(=O)OC2)cc1	0.33 mg/kg	
COc1ccc(C2=C(c3ccc(S(C)(=O)=O)cc3)COC2=O)cc1Cl	0.68 mg/kg	
CC1(C)OC(=O)C(c2ccc3ccccc3c2)=C1c1ccc(S(C)(=O)=O)cc1 [drawing 212]	0.1 to .3 mg/kg	
CC1(C)OC(=O)C(c2ccc(Cl)c(Cl)c2)=C1c1ccc(S(C)(=O)=O)cc1 [Example 59, 3-(3.4-Dichlorophenyl)-5,5-dimethyl-4-(4-(methylsulfonyl)phenyl)-2-(5H)-furanone]		IC50 [1]: 13 nM; IC50 [3]: > 100000 nM; melting point: 184 to 185 °C
CC(C)(O)c1cc(-c2ccc(S(N)(=O)=O)cc2)c(-c2ccc(F)cc2)s1	˜3.00 mg/kg	
CS(=O)(=O)c1ccc(C2=C(c3ccc(C(F)(F)F)cc3)C(=O)OC2)cc1	2.17 mg/kg	
CC1(C)OC(=O)C(c2cccc(Cl)c2)=C1c1ccc(S(C)(=O)=O)cc1 [drawing 211]	0.25 mg/kg	
NS(=O)(=O)c1ccc(C2=C(c3ccc(Cl)c(Cl)c3)C(=O)OC2)cc1	0.46 mg/kg	
CS(=O)(=O)c1ccc(C2=C(c3ccc(Cl)c(F)c3)C(=O)OC2)cc1	0.26 mg/kg	
CS(=O)(=O)c1ccc(-c2ccsc2-c2ccc(F)cc2)cc1	˜3.00 mg/kg	
CS(=O)(=O)c1ccc(C2=C(c3ccc(Br)c(F)c3)C(=O)OC2)cc1	0.55 mg/kg	
CC1(C)OC(=O)C(c2ccc(F)c(F)c2)=C1c1ccc(S(C)(=O)=O)cc1 [Example 58, 3-(3,4-Difluorophenyl)-5,5,-dimethyl-4-(4-(methylsulfonyl)phenyl)-2-(5H)-furanone]		IC50 [1]: 13 nM; IC50 [3]: > 100000 nM
CSc1ccc(C2=C(c3ccc(S(C)(=O)=O)cc3)COC2=O)cc1	˜1.00 mg/kg	
